Results from the supplement of paper PMC10307832.

Legend:
Test in all cases: relative viability (nuclei count vs DMSO), 5 days (fraction); higher = more cells survive
AZD5582 + Navitoclax = compound: C[C@@H](C(=O)N[C@@H](C1CCCCC1)C(=O)N2CCC[C@H]2C(=O)N[C@@H]3[C@@H](CC4=CC=CC=C34)OCC#CC#CCO[C@@H]5CC6=CC=CC=C6[C@@H]5NC(=O)[C@@H]7CCCN7C(=O)[C@H](C8CCCCC8)NC(=O)[C@H](C)NC)NC [AZD5582] + CC1(C)CCC(c2ccc(Cl)cc2)=C(CN2CCN(c3ccc(C(=O)NS(=O)(=O)c4ccc(N[C@H](CCN5CCOCC5)CSc5ccccc5)c(S(=O)(=O)C(F)(F)F)c4)cc3)CC2)C1 [Navitoclax] (partner 0.5 µM)
Method in brief: (§1)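 Cells from lung cancer lines were seeded into 1536-well plates and, one day later, dosed by pin tool. Treatments were either a single drug or a fixed dose of an anchor drug with five library-drug doses (not always all listed) in √10 steps. After 5 days, nuclei were stained in a one-step fixation (final 0.05% Triton X-100, 1% formaldehyde, 1 ug/ml Hoechst) and counted on 4× images, and relative viability is the treated-to-vehicle nuclei ratio, as the median of duplicate plates.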

AZD5582 + Phenformin = compound: C[C@@H](C(=O)N[C@@H](C1CCCCC1)C(=O)N2CCC[C@H]2C(=O)N[C@@H]3[C@@H](CC4=CC=CC=C34)OCC#CC#CCO[C@@H]5CC6=CC=CC=C6[C@@H]5NC(=O)[C@@H]7CCCN7C(=O)[C@H](C8CCCCC8)NC(=O)[C@H](C)NC)NC [AZD5582] + N=C(N)NC(=N)NCCc1ccccc1 [Phenformin] (partner 250 µM)
Method in brief: as §1

[1] = compound: Cn1nnc2c(C(N)=O)ncn2c1=O [Temozolomide] + CCNC(=O)c1noc(-c2cc(C(C)C)c(O)cc2O)c1-c1ccc(CN2CCOCC2)cc1 [Luminespib] (partner 0.01 µM)
Method in brief: as §1

Temozolomide + Alpelisib = compound: Cn1nnc2c(C(N)=O)ncn2c1=O [Temozolomide] + Cc1nc(NC(=O)N2CCC[C@H]2C(N)=O)sc1-c1ccnc(C(C)(C)C(F)(F)F)c1 [Alpelisib] (partner 2 µM)
Method in brief: as §1

Cell Line	relative viability (AZD5582 + Navitoclax; first compound 0.001581 µM)	relative viability (AZD5582 + Navitoclax; first compound 0.005 µM)	relative viability (AZD5582 + Navitoclax; first compound 0.01581 µM)	relative viability (AZD5582 + Navitoclax; first compound 0.05 µM)	relative viability (AZD5582 + Phenformin; first compound 0.001581 µM)	relative viability (AZD5582 + Phenformin; first compound 0.005 µM)	relative viability (AZD5582 + Phenformin; first compound 0.01581 µM)	relative viability (AZD5582 + Phenformin; first compound 0.05 µM)	relative viability ([1]; first compound 0.2 µM)	relative viability ([1]; first compound 0.6325 µM)	relative viability ([1]; first compound 2 µM)	relative viability ([1]; first compound 6.325 µM)	relative viability ([1]; first compound 20 µM)	relative viability (Temozolomide + Alpelisib; first compound 0.2 µM)	relative viability (Temozolomide + Alpelisib; first compound 0.6325 µM)	relative viability (Temozolomide + Alpelisib; first compound 2 µM)	relative viability (Temozolomide + Alpelisib; first compound 6.325 µM)	relative viability (Temozolomide + Alpelisib; first compound 20 µM)
NCI-H2023	0.962	0.844	1.01	0.956	0.387	0.409	0.348	0.408	1.04	0.85	0.874	0.675	0.691	0.544	0.608	0.531	0.624	0.596
NCI-H2085	1.14	1.1	1.12	1.01	0.562	0.623	0.561	0.542	0.476	0.415	0.41	0.449	0.487	1.01	0.927	0.994	1.1	0.953
NCI-H2087	1.03	0.864	1.05	1.05	0.423	0.49	0.443	0.464	0.204	0.188	0.188	0.165	0.168	1.26	1.05	1.15	1.12	1.11
NCI-H2126	0.829	0.835	0.834	0.706	0.489	0.567	0.497	0.512	0.917	0.927	1	0.802	0.888	0.703	0.753	0.799	0.744	0.752
